The source of these data is BindingDB's records for doi:10.1016/s0196-9781(98)00133-8 (Synaptic Pharmaceutical, 1998).

One test deals with T1, Galanin receptor type 2 (Homo sapiens, UniProt O43603).
T1 sequence (O43603 whole entry): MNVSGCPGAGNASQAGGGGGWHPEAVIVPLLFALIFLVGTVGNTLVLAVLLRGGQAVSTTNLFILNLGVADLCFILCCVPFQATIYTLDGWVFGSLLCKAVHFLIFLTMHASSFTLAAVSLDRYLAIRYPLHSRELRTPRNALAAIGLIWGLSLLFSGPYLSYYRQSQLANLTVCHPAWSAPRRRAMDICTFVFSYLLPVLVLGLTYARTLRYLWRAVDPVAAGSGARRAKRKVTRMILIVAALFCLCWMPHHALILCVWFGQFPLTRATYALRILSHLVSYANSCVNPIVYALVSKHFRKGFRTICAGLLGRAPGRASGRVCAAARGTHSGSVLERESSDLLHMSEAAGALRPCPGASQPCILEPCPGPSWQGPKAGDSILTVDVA

The target in another test is T2, Galanin receptor type 3 (Homo sapiens, UniProt O60755).
T2 sequence (O60755 whole entry): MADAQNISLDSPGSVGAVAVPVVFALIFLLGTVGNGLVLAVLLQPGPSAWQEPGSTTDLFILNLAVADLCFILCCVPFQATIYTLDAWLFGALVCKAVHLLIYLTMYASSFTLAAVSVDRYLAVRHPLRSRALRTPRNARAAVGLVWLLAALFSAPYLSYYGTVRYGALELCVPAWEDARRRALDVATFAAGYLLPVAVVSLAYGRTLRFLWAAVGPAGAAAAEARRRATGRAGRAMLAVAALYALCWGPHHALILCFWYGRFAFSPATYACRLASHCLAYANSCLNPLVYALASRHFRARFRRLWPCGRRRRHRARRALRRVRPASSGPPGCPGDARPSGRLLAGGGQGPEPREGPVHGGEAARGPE

Non-standard residues stand in square brackets, D forms with d. Residues, ends and D or L forms follow the SMILES beside them.

One may read the Ki as a measure of affinity in units of concentration, obtained from inhibition or displacement. High values mean weaker binding, low ones tighter binding. In the case of `CC[C@H](C)[C@H](NC(=O)[C@H](C)NC(=O)[C@H](Cc1cnc[nH]1)NC(=O)[C@@H]1CCCN1C(=O)CNC(=O)[C@H](CC(C)C)NC(=O)[C@H](CC(C)C)NC(=O)[C@H](Cc1ccc(O)cc1)NC(=O)CNC(=O)[C@H](C)NC(=O)[C@H](CO)NC(=O)[C@H](CC(N)=O)NC(=O)[C@H](CC(C)C)NC(=O)[C@@H](NC(=O)[C@H](Cc1c[nH]c2ccccc12)NC(=O)CN)[C@@H](C)O)C(=O)N[C@@H](CC(=O)O)C(=O)N[C@@H](CC(N)=O)C(=O)N[C@@H](Cc1cnc[nH]1)C(N)=O` [Galanin rat], the inhibitory constant (Ki) on Galanin receptor type 2 turned out to be 1.62 nM.
Take H-GWTLNSAGYLLGPPPALALA-NH2 [M40]: the affinity on Galanin receptor type 2 corresponds to a Ki of 4.07 nM.
Turning to `CC(C)C[C@H](NC(=O)[C@H](CC(C)C)NC(=O)[C@@H](Cc1c[nH]c2ccccc12)NC(=O)[C@H](Cc1ccccc1)NC(=O)[C@@H](Cc1c[nH]c2ccccc12)NC(=O)[C@H](CCC(N)=O)NC(=O)[C@H](CCC(N)=O)NC(=O)[C@@H]1CCCN1C(=O)[C@H](CCCCN)NC(=O)[C@@H]1CCCN1C(=O)[C@@H](CCCN=C(N)N)NC(=O)[C@@H]1CCCN1C(=O)CNC(=O)[C@H](CC(C)C)NC(=O)[C@H](CC(C)C)NC(=O)[C@H](Cc1ccc(O)cc1)NC(=O)CNC(=O)[C@H](C)NC(=O)[C@H](CO)NC(=O)[C@H](CC(N)=O)NC(=O)[C@H](CC(C)C)NC(=O)[C@@H](NC(=O)[C@H](Cc1c[nH]c2ccccc12)NC(=O)CN)[C@@H](C)O)C(N)=O` [Gal(1-13)-Std I] (H-GWTLNSAGYLLGP[dR]PKPQQ[dW]F[dW]LL-NH2), at Galanin receptor type 2, the inhibition constant (Ki) was 0.63 nM. This Ki is about 6.5-fold lower than that of the molecule before.
Still for that read-out and setting: with `CC[C@H](C)[C@H](NC(=O)[C@H](C)NC(=O)[C@H](Cc1c[nH]cn1)NC(=O)[C@@H]1CCCN1C(=O)CNC(=O)[C@H](CC(C)C)NC(=O)[C@H](CC(C)C)NC(=O)[C@H](Cc1ccc(O)cc1)NC(=O)CNC(=O)[C@H](C)NC(=O)[C@H](CO)NC(=O)[C@H](CC(N)=O)NC(=O)[C@H](CC(C)C)NC(=O)[C@@H](N)[C@@H](C)O)C(=O)N[C@@H](CC(=O)O)C(=O)N[C@@H](CC(N)=O)C(=O)N[C@@H](Cc1c[nH]cn1)C(=O)N[C@@H](CCCNC(=N)N)C(=O)N[C@@H](CO)C(=O)N[C@@H](Cc1ccccc1)C(=O)N[C@@H](Cc1c[nH]cn1)C(=O)N[C@@H](CC(=O)O)C(=O)N[C@@H](CCCCN)C(=O)N[C@@H](Cc1ccc(O)cc1)C(=O)NCC(=O)N[C@@H](CC(C)C)C(=O)N[C@@H](C)C(N)=O` [Galanin (3-29), porcine] the figure was 1000 nM.
With `CC[C@H](C)[C@H](NC(=O)[C@H](C)NC(=O)[C@H](Cc1c[nH]cn1)NC(=O)[C@@H]1CCCN1C(=O)CNC(=O)[C@H](CC(C)C)NC(=O)[C@H](CC(C)C)NC(=O)[C@H](Cc1ccc(O)cc1)NC(=O)CNC(=O)[C@H](C)NC(=O)[C@H](CO)NC(=O)[C@H](CC(N)=O)NC(=O)[C@H](CC(C)C)NC(=O)[C@@H](NC(=O)[C@@H](N)Cc1c[nH]c2ccccc12)[C@@H](C)O)C(=O)N[C@@H](CC(=O)O)C(=O)N[C@@H](CC(N)=O)C(=O)N[C@@H](Cc1c[nH]cn1)C(=O)N[C@@H](CCCNC(=N)N)C(=O)N[C@@H](CO)C(=O)N[C@@H](Cc1ccccc1)C(=O)N[C@@H](CO)C(=O)N[C@@H](CC(=O)O)C(=O)N[C@@H](CCCCN)C(=O)N[C@@H](Cc1c[nH]cn1)C(=O)NCC(=O)N[C@@H](CC(C)C)C(=O)N[C@H](C(N)=O)[C@@H](C)O` [Galanin Porcine 2-29], the inhibition constant (Ki) is 2.88 nM on Galanin receptor type 2 and 60.3 nM at Galanin receptor type 3.
As for `CC(C)C[C@H](NC(=O)[C@H](CC(C)C)NC(=O)[C@H](Cc1ccc(O)cc1)NC(=O)CNC(=O)[C@H](C)NC(=O)[C@H](CO)NC(=O)[C@H](CC(N)=O)NC(=O)[C@H](CC(C)C)NC(=O)[C@@H](NC(=O)[C@H](Cc1c[nH]c2ccccc12)NC(=O)CN)[C@@H](C)O)C(=O)NCC(=O)N1CCC[C@H]1C(=O)N1CCC[C@H]1C(=O)N1CCC[C@H]1C(=O)NCC(=O)N[C@@H](Cc1ccccc1)C(=O)N[C@@H](CO)C(=O)N1CCC[C@H]1C(=O)N[C@@H](Cc1ccccc1)C(=O)N[C@@H](CCCN=C(N)N)C(N)=O`, the Ki at Galanin receptor type 2 was found to be 1.95 nM.
`COc1ccccc1N(CCOc1ccc(C)cc1)C(=O)CN1CCCCC1` [CAS_3043476] came in with an inhibitory constant (Ki) at Galanin receptor type 2 of 1.07 nM.
